In paper PMC6562610, “Inhibition of Hedgehog Signaling in Fibroblasts, Pancreatic, and Lung Tumor Cells by Oxy186, an Oxysterol Analogue with Drug-Like Properties” (Cells, 2019):
“Also recorded” adds a separate entry of the source. Like-named read-outs stand apart in the source and are kept apart here.

What was measured:
[1] = test system: Hh target genes, Gli1 and Ptch1; test: Induction of Hh target genes by oxysterol alone in NIH3T3-E1 cells, Q-RT-PCR; type: cell-based, mouse; details: up to 10 µM, no CM
Protocol: Total RNA was extracted with the RNeasy Plus Mini Kit from Qiagen, according to the manufacturer’s instructions. One microgram of RNA was reverse-transcribed using an iScript Reverse Transcription Supermix from Bio-Rad, to make single-stranded cDNA. The cDNAs were then mixed with Qi SYBR Green Supermix (Bio-Rad, Hercules, CA, USA) for quantitative RT-PCR assay using a Bio-Rad I-cycler IQ quantitative thermocycler. All PCR samples were prepared in triplicate wells in a 96-well plate. After 40 cycles of PCR, melt curves were examined in order to ensure primer specificity. Fold changes in gene expression were calculated using the ΔΔCt method. Primers used for mouse were as follows: Oaz1 (5’-CCACTGCTTCGCCAGAGAG-3’) and (5’-CCCGGACCCAGGTTACTA-3’), Gli1 (5’-[…]-3’ and 5’-[…]-3’), Ptch1 (5’-CCATCGGCGACAAGAACC-3’ and 5’-[…]-3’), Hip (5’-[…]-3’ and 5’-[…]-3’), and Abca1 (5’-[…]-3’ and 5’-[…]-3’). […]
(§1) Figure 3 Inhibition of ligand-induced Hedgehog signaling. […] After 72 h, RNA was extracted and analyzed by Q-RT-PCR for the expression of Hh target genes Gli1 (a,b,d) and Ptch1 (c), and normalized to Oaz1 expression. […] Luciferase activity was measured and normalized to the Renilla luciferase activity. […]

[2] = Pharmacokinetic study in mice, single oral dose; type: in vivo, balb/c mice; details: for Cmax: read-out: maximum serum concentration (Cmax)
Protocol: In an initial assessment of the drug-like properties of Oxy186, we performed a pharmacokinetic (PK) study in mice. Oxy186, formulated in 4% ethanol, 15% DMSO, and 81% corn oil, was administered to balb/c mice by oral gavage as a single dose of 50 mg/kg.
Figure 8 Drug-like properties of Oxy186. (a) A single dose of Oxy186 at 50 mg/kg, formulated in 4% ethanol/ 15% DMSO/ 81% corn oil, was administered to balb/c mice by oral gavage. Plasma samples were taken at 10 min, 30 min, 1, 2, 4, 6, 8, and 24 h, followed by LC/MS analysis of the plasma. (b) Evolution of Oxy186 from parent compound Oxy16 and their drug-like properties.

[3] = test system: Hh target gene Gli1 expression in NIH3T3-E1 cells; test: Inhibition of CAPAN-1 conditioned medium (ligand)-induced Gli1 mRNA expression, Q-RT-PCR; type: cell-based; details: 72 h
Text: NIH3T3-E1 fibroblasts were obtained from ATCC (Manassas, VA) and cultured, as previously described. CAPAN-1 and PANC-1 human pancreatic cancer cells were obtained from ATCC and cultured in Dulbecco’s Modified Eagle Medium (DMEM) containing 10% heat-inactivated fetal bovine serum (FBS) (Hyclone Laboratories, Logan, UT, USA) and antibiotics, as previously described. The human lung cancer cell lines A549 and H2030 were obtained from ATCC and cultured in RPMI-1640 containing 10% FBS. The human hepatoma cell line HepG2 was obtained from ATCC and cultured in DMEM containing 10% FBS. Mouse embryonic fibroblasts (MEFs) from suppressor of fused (Sufu) null mice (Sufu^−/−) were provided by Dr. Philip Beachy of Stanford University and cultured in DMEM containing 10% FBS. Gant61, SB431542 and vismodegib (GDC0449) were obtained from Cayman Chemical, HPI-1 was obtained from Abcam. For experiments, cells were treated in a medium containing 5% FBS.
Growth medium in confluent […] tissue culture plates of CAPAN-1 cells were replaced with 10 ml of fresh growth medium and cells were incubated for a total of 7 days. Conditioned medium (CM), containing Shh and Ihh, was collected and spun down to remove any detached cells and debris, aliquoted, and stored frozen at −80 °C [37].
Total RNA was extracted with the RNeasy Plus Mini Kit from Qiagen, according to the manufacturer’s instructions. One microgram of RNA was reverse-transcribed using an iScript Reverse Transcription Supermix from Bio-Rad, to make single-stranded cDNA. The cDNAs were then mixed with Qi SYBR Green Supermix (Bio-Rad, Hercules, CA, USA) for quantitative RT-PCR assay using a Bio-Rad I-cycler IQ quantitative thermocycler. […] Fold changes in gene expression were calculated using the ΔΔCt method. […]
as §1

CAPAN-1 cells = test: Cell counting assay, CAPAN-1; type: cell-based, human; details: 96 h
Protocol: A549 and H2030 cells cultured in 12-well plates at 20% confluence were treated with Oxy186, HPI-1, Gant61, or GDC0449 for 96 hours and then trypsinized and suspended in fresh medium. An aliquot of cell suspension was applied to a hemocytometer and counted under a microscope.
Figure 6 Inhibition of human pancreatic and lung cancer cell proliferation by Oxy186. (a,c) A549, (b) and (d) H2030, (e) PANC-1, and (f) CAPAN-1 cells were treated with the compounds as indicated in RPMI 1640 (a–d) or DMEM (e,f) containing 5% FBS for 96 h and then were trypsinized and counted. Data from a representative experiment are reported as the mean of triplicate determinations ± SD (* p < 0.05 vs. Control; ** p < 0.01 vs. control).

[4] = mouse, plasma, balb/c mice, 50 mg/kg, oral gavage, single dose

C[C@]12CC[C@H](O)C[C@@H]1CC[C@@H]1[C@@H]2CC[C@@]2(C)[C@H]1CC[C@@H]2[C@](C)(O)CCc1ccc(F)cc1 [Oxy186, (3S,5S,8R,9S,10S,13S,14S,17S)-17-((R)-4-(4-fluorophenyl)-2-hydroxybutan-2-yl)-10,13-dimethylhexadecahydro-1H-cyclopenta[a]phenanthren-3-ol]
Induction of Hh target genes Gli1 and Ptch1 [1]: not | In vivo availability / stability (Figure 8b summary) ([2]; Figure 8b drug-like properties summary): Orally available in mice | Tolerability ([2]; balb/c mice, 50 mg/kg, oral gavage, single dose): well tolerated; also recorded: no overt signs of toxicity | Tmax [2, 4]: 2 h | AUC ([2]; mouse, plasma, balb/c mice, 50 mg/kg, oral gavage, single dose, read-out: area under the curve (AUC)): 10500 ng·h/mL | Cmax [2, 4]: 1490 ng/mL | half-life ([2]; mouse, plasma, balb/c mice, 50 mg/kg, oral gavage, single dose, read-out: oral half-life (T1/2) (converted)): 4.5 h | AUC ([2]; mouse, plasma, balb/c mice, 50 mg/kg, oral gavage, converted from ng/mL, read-out: area under the curve (AUC), molar): 23.7 µM·h | Cmax ([2]; mouse, plasma, balb/c mice, 50 mg/kg, oral gavage, converted with MW = 442.32): 3.4 µM | Inhibition of ligand-induced Gli1 mRNA expression ([3]; NIH3T3-E1 cells, CAPAN-1 CM): robustly inhibited; also recorded: greater Hh signaling inhibitory efficacy than Oxy16 | IC50 ([3]; NIH3T3 cells activated by CAPAN-1 CM Hh ligands): 600 nM | Anti-proliferation effect (CAPAN-1 cells): significant anti-proliferation effects; also recorded: moderate anti-proliferative effects
